In article PMC7927096, “Dipeptides of S-Substituted Dehydrocysteine as Artzyme Building Blocks: Synthesis, Complexing Abilities and Antiproliferative Properties” (International Journal of Molecular Sciences, 2021):
Where a name gives a salt, the structure may show the parent alone. Read-outs that look alike come from different tables or passages of the source.

Columns and labels:
[1] = test system: ten diverse human cancer cells lines and murine non-tumorigenic cell line (Balb/3T3); assay: Antiproliferative screen, whole cell line panel (statements in words); assay type: cell-based; settings: SRB; for activity against resistant versus parent cell lines (in words): 10d: with exception of the line resistant to gemcitabine; for antiproliferative activity (in words): across cell lines
Excerpt: (§1) Ten different human cancer cell lines (including drug-resistant sublines) and one non-tumorigenic murine fibroblasts cell line were used to determine antiproliferative activity of the tested compounds. The MDA-MB-231 (breast adenocarcinoma), UM-UC-3 (urinary bladder transitional cell carcinoma), LoVo (colorectal adenocarcinoma), LoVo^Dx (colorectal adenocarcinoma, doxorubicin-resistant) and Balb/3T3 (non-tumorigenic murine fibroblasts) were purchased from the American Type Culture Collection (ATCC; Rockville, USA). The MCF-7 (breast adenocarcinoma) and A549 (lung carcinoma) were purchased from European Collection of Authenticated Cell Cultures (ECACC; Porton Down, UK). The UM-UC-3^CDDP, UM-UC-3^GEM, UM-UC-3^VBL, and UM-UC-3^CDDP/GEM cell lines were established at Hirszfeld Institute of Immunology and Experimental Therapy of the Polish Academy of Sciences (HIIET, PAS, Wroclaw, Poland) by the continuous exposure to the increasing concentrations of corresponding cytostatics.
(§2) The Balb/3T3 and UM-UC-3 were cultured in Dulbecco’s Modified Eagle Medium (DMEM; Life Technologies, UK) supplemented with 10% (v/v) fetal bovine serum (FBS; GE Healthcare HyClone, Logan, USA) and 2 mM L-glutamine (Sigma-Aldrich, Poznań, Poland). The UM-UC-3^CDDP, UM-UC-3^GEM, UM-UC-^3VBL, and UM-UC-3^CDDP/GEM culture media were additionally supplemented with appropriate cytostatics: 2.5 µg/mL cisplatin (Accord, Warsaw, Poland) for UM-UC-3^CDDP, 500 nM gemcitabine (Sigma-Aldrich, Poznań, Poland) for UM-UC-3^GEM, 5 nM vinblastine (Sigma-Aldrich, Poznań, Poland) for UM-UC-3VBL, 2.5 µg/mL cisplatin and 500 nM gemcitabine for UM-UC-3^CDDP/GEM. The LoVo cell line was cultured in F-12K Nutrient Mixture (F-12K; Corning, Corning, USA), supplemented with 10% (v/v) FBS. LoVo^Dx culture medium was additionally supplemented with doxorubicin 100 ng/mL (Accord, Warsaw, Poland). The MCF-7 cell line was cultured in Eagle’s medium (HIIET, PAS, Wroclaw, Poland), supplemented with 10% (v/v) FBS (Sigma-Aldrich, Poznań, Poland), 2 mM L-glutamine, MEM non-essential amino acid solution 1% (v/v) (Sigma-Aldrich, Poznań, Poland), insulin 8 µg/mL (Sigma-Aldrich, Poznań, Poland). The MDA-MB-231 cell line was cultured in RPMI 1640 (HIIET, PAS, Wroclaw, Poland), supplemented with 10% (v/v) FBS (Sigma-Aldrich, Poznań, Poland) and 2 mM L-glutamine. The A 549 cell line was cultured in OptiMEM (HIIET, PAS, Wroclaw, Poland), supplemented with 5% (v/v) FBS (GE Healthcare HyClone, Logan, USA) and 2 mM L-glutamine. All culture media were supplemented with antibiotics—100 μg/mL streptomycin (Polfa Tarchomin, Warsaw, Poland) and 100 U/mL penicillin (Sigma-Aldrich, Poznań, Poland).
(§3) All cell lines were cultured in a humidified atmosphere at 37 °C with 5% (v/v) CO2 and passaged twice a week using EDTA-Trypsin solution (pH 8; HIIET, Wroclaw, Poland) as a detachment agent.
(§4) All compounds, for antiproliferative activity assessment, were stored at […] as 50 mM solutions in dimethyl sulfoxide (DMSO; Avantor Performance Materials, Gliwice, Poland).
(§5) The cells were seeded on 384-well plates (Greiner Bio One, Kremsmünster, Austria) at 1 × 10^3 cells/well density for A 549, UM-UC-3, UM-UC-3^CDDP, UM-UC-3^GEM, UM-UC-3^CVBL and UM-UC-3^CDDP/GEM cell lines. Other cell lines were seeded at 2 × 10^3 cells/well. After overnight incubation, compounds were applied at eight concentrations (ranging from 100 µM to 0.03 µM). After 72 h incubation, the sulforhodamine B (SRB) assay based on Skehan et al. was carried out with slight modifications. In brief, 50 µL of the medium was replaced with 30 µL/well of 25% (w/v) trichloroacetic acid (Avantor Performance Materials, Gliwice, Poland). After 1 h incubation at room temperature, plates were washed three times with tap water, and 20 µL of 0.1% (w/v) solution of sulforhodamine B (Sigma-Aldrich, Poznan, Poland) in 1% (v/v) acetic acid (Avantor Performance Materials, Gliwice, Poland) was added to each well. […]

[2] = test system: UM-UC-3^GEM (gemcitabine-resistant); assay: Antiproliferative activity, sulforhodamine B assay; assay type: cell-based, human; settings: SRB, 72 h incubation, read-out: IC50 ± SD, UM-UC-3^GEM
Excerpt: as §1, §2, §3, §4, §5

[3] = test system: UM-UC-3 (urinary bladder transitional cell carcinoma); assay: Antiproliferative activity, sulforhodamine B assay; assay type: cell-based, human; settings: SRB, 72 h incubation, read-out: IC50 ± SD, UM-UC-3
Excerpt: as §1, §2, §3, §4, §5

[4] = test system: UM-UC-3^VBL (vinblastine-resistant); assay: Antiproliferative activity, sulforhodamine B assay; assay type: cell-based, human; settings: SRB, 72 h incubation, read-out: IC50 ± SD, UM-UC-3^VBL
Excerpt: as §1, §2, §3, §4, §5

[5] = test system: UM-UC-3^CDDP (cisplatin-resistant); assay: Antiproliferative activity, sulforhodamine B assay; assay type: cell-based, human; settings: SRB, 72 h incubation, read-out: IC50 ± SD, UM-UC-3^CDDP
Excerpt: as §1, §2, §3, §4, §5

[6] = test system: MCF-7 (breast adenocarcinoma); assay: Antiproliferative activity, sulforhodamine B assay; assay type: cell-based, human; settings: SRB, 72 h incubation, read-out: IC50 ± SD, MCF-7
Excerpt: as §1, §2, §3, §4, §5

[7] = test system: MDA-MB-231 (breast adenocarcinoma); assay: Antiproliferative activity, sulforhodamine B assay; assay type: cell-based, human; settings: SRB, 72 h incubation, read-out: IC50 ± SD, MDA-MB-231
Excerpt: as §1, §2, §3, §4, §5

[8] = test system: LoVo (colorectal adenocarcinoma); assay: Antiproliferative activity, sulforhodamine B assay; assay type: cell-based, human; settings: SRB, 72 h incubation, read-out: IC50 ± SD, LoVo
Excerpt: as §1, §2, §3, §4, §5

[9] = test system: LoVo^DX (colorectal adenocarcinoma, doxorubicin-resistant); assay: Antiproliferative activity, sulforhodamine B assay; assay type: cell-based, human; settings: SRB, 72 h incubation, read-out: IC50 ± SD, LoVo^DX
Excerpt: as §1, §2, §3, §4, §5

[10] = test system: A549 (lung carcinoma); assay: Antiproliferative activity, sulforhodamine B assay; assay type: cell-based, human; settings: SRB, 72 h incubation, read-out: IC50 ± SD, A-549
Excerpt: as §1, §2, §3, §4, §5

[11] = test system: UM-UC-3^CDDP/GEM (resistant to cisplatin and gemcitabine); assay: Antiproliferative activity, sulforhodamine B assay; assay type: cell-based, human; settings: SRB, 72 h incubation, read-out: IC50 ± SD, UM-UC-3^CDDP/GEM
Excerpt: as §1, §2, §3, §4, §5

[12] = test system: Balb/3T3 (non-tumorigenic murine fibroblasts); assay: Antiproliferative activity, sulforhodamine B assay; assay type: cell-based; settings: SRB, 72 h incubation, non-tumorigenic line, read-out: IC50 ± SD, Balb/3T3
Excerpt: as §1, §2, §3, §4, §5

[13] = design: method as in PMID 12031802; settings: Cu(II) complex; cited from earlier work

Compound | IC50 ([3]; Homo sapiens, UMUC3) | IC50 ([6]; Homo sapiens, MCF7) | IC50 ([7]; Homo sapiens, MDA-MB-231) | IC50 ([8]; Homo sapiens, LoVo) | IC50 ([9]; Homo sapiens, LoVo/DX) | IC50 ([10]; Homo sapiens, A549) | activity against resistant versus parent cell lines (in words) [1] | IC50 ([2]; Homo sapiens) | IC50 ([4]; Homo sapiens) | IC50 ([5]; Homo sapiens) | IC50 ([11]; Homo sapiens) | IC50 ([12]; Mus musculus, BALB/3T3) | antiproliferative activity (in words) [1] | further results
[NH2][Pt]([NH2])([Cl])[Cl] [CDDP, cisplatin, reference compound] | – | – | – | – | – | – | – | – | – | – | – | – | – | IC50 [2]: 2.6 ± 0.2 µM; IC50 [3]: 2.4 ± 0.6 µM; IC50 [4]: 2.3 ± 0.3 µM; IC50 [5]: 26.1 ± 1.8 µM; IC50 [6]: 6 ± 2.2 µM; IC50 [7]: 24.4 ± 4.8 µM; IC50 [8]: 4.4 ± 0.3 µM; IC50 [9]: 3.4 ± 0.2 µM; IC50 [10]: 2.7 ± 1 µM; IC50 [11]: 25.1 ± 1.9 µM; IC50 [12]: 10.2 ± 4.8 µM
COC(=O)/C(=C/Sc1nc(-c2ccccc2)c[nH]1)NC(=O)CNC(=O)OC(C)(C)C [Compound 6b, Boc-Gly-ΔCys(S-4-phenylimidazole)-OMe] | 23.1 ± 2.6 µM | 31.8 ± 7.8 µM | 35 ± 10 µM | 32.4 ± 2.6 µM | > 100 µM | 27.2 ± 7.7 µM | – | 35.1 ± 2.8 µM | 33.8 ± 2.6 µM | 34.6 ± 3.6 µM | 32.5 ± 4 µM | 38.4 ± 3.5 µM | – | –
NCC(=O)N/C(=C\c1ccccc1)C(=O)O [Gly(Z)ΔPhe] | – | – | – | – | – | – | – | – | – | – | – | – | – | logβ of the analogous species with {N-NH2, Namide} binding mode [13]: 2.19
COC(=O)/C(=C/Sc1nc2cc(OC)ccc2o1)NC(=O)CNC(=O)OC(C)(C)C [Compound 6c, Boc-Gly-ΔCys(S-5-methoxybenzoxazole)-OMe] | 7.2 ± 0.6 µM | 5.3 ± 0.9 µM | 5 ± 0.8 µM | 8.7 ± 1.1 µM | 6.4 ± 0.4 µM | 6.2 ± 1.4 µM | equipotential towards both resistant and parent cell lines | 5.2 ± 0.6 µM | 6 ± 1.5 µM | 7.8 ± 0.7 µM | 8.6 ± 1.4 µM | 5.3 ± 1.2 µM | most potent representatives | –
COC(=O)/C(=C/Sc1nc2ccccc2s1)NC(=O)CNC(=O)OC(C)(C)C [Compound 6d, Boc-Gly-ΔCys(S-benzothiazole)-OMe] | 4.6 ± 0.4 µM | 4.5 ± 0.5 µM | 6.1 ± 0.6 µM | 6.7 ± 0.7 µM | 6.2 ± 0.6 µM | 5.6 ± 0.9 µM | equipotential towards both resistant and parent cell lines | 4.6 ± 0.5 µM | 4.9 ± 0.8 µM | 6.4 ± 0.4 µM | 6.2 ± 0.8 µM | 5.8 ± 0.9 µM | most potent representatives | –

Second part, led by results:

IC50 ([3]; Homo sapiens, UMUC3) | IC50 ([6]; Homo sapiens, MCF7) | IC50 ([7]; Homo sapiens, MDA-MB-231) | IC50 ([8]; Homo sapiens, LoVo) | IC50 ([9]; Homo sapiens, LoVo/DX) | IC50 ([10]; Homo sapiens, A549) | Compound | activity against resistant versus parent cell lines (in words) [1] | IC50 ([2]; Homo sapiens) | IC50 ([4]; Homo sapiens) | IC50 ([5]; Homo sapiens) | IC50 ([11]; Homo sapiens) | IC50 ([12]; Mus musculus, BALB/3T3) | antiproliferative activity (in words) [1] | further results
30.5 ± 3.7 µM | 22 ± 4.5 µM | 24.4 ± 3 µM | 70.3 ± 21.5 µM | 33.1 ± 9 µM | 14 ± 5.6 µM | COC(=O)/C(=C/Sc1nc2ccccc2s1)NC(=O)[C@@H](N)Cc1ccccc1 [Compound 10d, HCl Phe-ΔCys(S-benzothiazole)-OMe] | more effective against resistant cell lines | 67.8 ± 9.6 µM | 9.4 ± 2.2 µM | 16.6 ± 2.5 µM | 25.3 ± 8 µM | 42.2 ± 9.3 µM | – | –
6.2 ± 0.8 µM | 4.5 ± 0.4 µM | 7.1 ± 0.8 µM | 6.3 ± 0.5 µM | 4.5 ± 0.4 µM | 4 ± 1.1 µM | COC(=O)/C(=C/Sc1nc2cc(OC)ccc2o1)NC(=O)[C@H](Cc1ccccc1)NC(=O)OC(C)(C)C [Compound 7c, Boc-Phe-ΔCys(S-5-methoxybenzoxazole)-OMe] | equipotential towards both resistant and parent cell lines | 7 ± 0.5 µM | 5.8 ± 0.6 µM | 6.8 ± 0.8 µM | 5.9 ± 0.4 µM | 5.3 ± 0.4 µM | most potent representatives | –
13.5 ± 4.5 µM | 15.5 ± 2.5 µM | 15.2 ± 4.4 µM | 16.4 ± 1.7 µM | 23 ± 2.2 µM | 12 ± 4 µM | COC(=O)/C(=C/Sc1nc(-c2ccccc2)c[nH]1)NC(=O)[C@H](Cc1ccccc1)NC(=O)OC(C)(C)C [Compound 7b, Boc-Phe-ΔCys(S-4-phenylimidazole)-OMe] | – | 19.9 ± 3.3 µM | 17.3 ± 1.7 µM | 19 ± 3.2 µM | 17.2 ± 2.1 µM | 7.6 ± 0.9 µM | – | –
6.7 ± 1.4 µM | 6.8 ± 0.5 µM | 10.8 ± 0.4 µM | 9.6 ± 0.9 µM | 8.6 ± 0.9 µM | 6.6 ± 1.4 µM | COC(=O)/C(=C/Sc1nc2ccccc2s1)NC(=O)[C@H](Cc1ccccc1)NC(=O)OC(C)(C)C [Compound 7d, Boc-Phe-ΔCys(S-benzothiazole)-OMe] | equipotential towards both resistant and parent cell lines | 8 ± 2.3 µM | 6.3 ± 1 µM | 11.2 ± 1.5 µM | 9.1 ± 1.2 µM | 3.1 ± 0.6 µM | most potent representatives | –
56 ± 5.7 µM | 74.5 ± 5.8 µM | 53.3 ± 5.5 µM | 75.8 ± 6.5 µM | > 100 µM | 60.7 ± 12.1 µM | COC(=O)/C(=C/Sc1nc[nH]n1)NC(=O)[C@H](Cc1ccccc1)NC(=O)OC(C)(C)C [Compound 7a, Boc-Phe-ΔCys(S-triazole)-OMe] | – | 65.2 ± 4.9 µM | 54.9 ± 3.5 µM | 67.7 ± 3.9 µM | 62.2 ± 5.3 µM | 19.7 ± 1.9 µM | markedly lower, if any, activity | –
